From the OligoGym collection
HELM strings list units from the 5' end as sugar, base in round brackets, then linkage (d deoxyribose, r ribose, m 2'-O-methyl, p phosphodiester). Strings are as the collection lists them, not checked against the first reports. ss, as = sense and antisense strand; [lna] = locked nucleic acid (LNA); [una] = unlocked nucleic acid; [s4r] = 4'-thioribose; [fl2r] = 2'-fluoro

Settings: siRNA
Also: test system not given here.

Substance	target mRNA knockdown [%]
RNA1{r(A)p.r(A)p.r(A)p.r(G)p.r(G)p.r(G)p.r(G)p.r(A)p.r(G)p.r(U)p.m(U)p.r(G)p.r(C)p.m(U)p.r(G)p.r(G)p.r(A)p.r(A)p.r(G)p.r(T)p.r(T)}|RNA2{r(C)p.r(U)p.r(U)p.r(C)p.m(C)p.r(A)p.r(G)p.m(C)p.r(A)p.r(A)p.r(C)p.r(U)p.r(C)p.r(C)p.r(C)p.r(C)p.r(U)p.r(U)p.r(U)p.r(T)p.r(T)}$$$RNA1{StrandType:ss}|RNA2{StrandType:as}$	74
RNA1{r(A)p.r(C)p.r(C)p.r(U)p.r(U)p.r(U)p.r(C)p.m(C)p.r(A)p.r(C)p.r(U)p.r(U)p.r(C)p.m(U)p.r(A)p.r(A)p.r(G)p.r(C)p.r(C)p.r(T)p.r(T)}|RNA2{r(G)p.r(G)p.r(C)p.r(U)p.m(U)p.r(A)p.r(G)p.r(A)p.r(A)p.r(G)p.m(U)p.r(G)p.r(G)p.r(A)p.r(A)p.r(A)p.r(G)p.r(G)p.r(U)p.r(T)p.r(T)}$$$RNA1{StrandType:ss}|RNA2{StrandType:as}$	75
RNA1{[fl2r](G)p.r(C)p.[fl2r](U)p.r(U)p.[fl2r](C)p.r(G)p.[fl2r](G)p.r(A)p.[fl2r](A)p.r(A)p.[fl2r](C)p.r(U)p.[fl2r](G)p.r(G)p.[fl2r](A)p.r(C)p.[fl2r](A)p.r(U)p.[fl2r](C)p.r(T)p.r(T)}|RNA2{[fl2r](G)p.r(A)p.r(U)p.[fl2r](G)p.r(U)p.r(C)p.r(C)p.r(A)p.[fl2r](G)p.r(U)p.r(U)p.r(U)p.r(C)p.r(C)p.[fl2r](G)p.r(A)p.r(A)p.[fl2r](G)p.r(C)p.r(T)p.r(T)}$$$RNA1{StrandType:ss}|RNA2{StrandType:as}$	29
RNA1{r(G)p.r(C)p.r(U)p.r(G)p.r(A)p.r(G)p.r(G)p.r(A)p.r(A)p.r(A)p.r(G)p.r(G)p.r(G)p.r(A)p.r(C)p.r(A)p.r(U)p.r(C)p.r(U)p.r(T)p.r(T)}|RNA2{r(A)p.r(G)p.m(A)p.m(U)p.r(G)p.r(U)p.r(C)p.r(C)p.r(C)p.r(U)p.r(U)p.r(U)p.r(C)p.r(C)p.r(U)p.r(C)p.r(A)p.r(G)p.r(C)p.r(T)p.r(T)}$$$RNA1{StrandType:ss}|RNA2{StrandType:as}$	78
RNA1{r(A)p.m(U)p.r(A)p.r(C)p.r(U)p.m(U)p.r(G)p.r(G)p.r(C)p.m(G)p.r(G)p.r(G)p.r(C)p.r(U)p.r(C)p.r(U)p.r(U)p.r(U)p.r(C)p.r(T)p.r(T)}|RNA2{r(G)p.r(A)p.r(A)p.r(A)p.r(G)p.r(A)p.r(G)p.r(C)p.r(C)p.r(C)p.r(G)p.r(C)p.m(C)p.r(A)p.r(A)p.r(G)p.m(U)p.r(A)p.r(U)p.r(T)p.r(T)}$$$RNA1{StrandType:ss}|RNA2{StrandType:as}$	42
RNA1{[s4r](A)p.[s4r](A)p.r(A)p.r(C)p.r(A)p.r(U)p.r(G)p.r(C)p.r(A)p.r(G)p.r(A)p.r(A)p.r(A)p.r(A)p.r(U)p.r(G)p.r(C)p.r(U)p.r(G)p.r(T)p.r(T)}|RNA2{r(C)p.r(A)p.r(G)p.r(C)p.r(A)p.r(U)p.r(U)p.r(U)p.r(U)p.r(C)p.r(U)p.r(G)p.r(C)p.r(A)p.r(U)p.[s4r](G)p.[s4r](U)p.[s4r](U)p.[s4r](U)p.r(T)p.r(T)}$$$RNA1{StrandType:ss}|RNA2{StrandType:as}$	70.9
RNA1{m(U)p.r(U)p.m(U)p.r(G)p.m(A)p.r(U)p.m(C)p.r(A)p.m(G)p.r(C)p.m(G)p.r(G)p.m(A)p.r(G)p.m(A)p.r(C)p.m(U)p.r(C)p.m(G)p.r(T)p.r(T)}|RNA2{r(C)p.r(G)p.r(A)p.r(G)p.r(U)p.r(C)p.r(U)p.r(C)p.r(C)p.m(G)p.r(C)p.r(U)p.r(G)p.r(A)p.m(U)p.r(C)p.r(A)p.r(A)p.r(A)p.r(T)p.r(T)}$$$RNA1{StrandType:ss}|RNA2{StrandType:as}$	49
RNA1{[fl2r](U)p.r(U)p.[fl2r](C)p.r(U)p.[fl2r](A)p.r(A)p.[fl2r](C)p.r(C)p.[fl2r](G)p.r(G)p.[fl2r](G)p.r(C)p.[fl2r](A)p.r(G)p.[fl2r](C)p.r(U)p.[fl2r](U)p.r(C)p.[fl2r](U)p.r(T)p.r(T)}|RNA2{r(A)p.r(G)p.r(A)p.r(A)p.r(G)p.r(C)p.r(U)p.r(G)p.r(C)p.r(C)p.r(C)p.r(G)p.r(G)p.r(U)p.r(U)p.r(A)p.r(G)p.r(A)p.r(A)p.r(T)p.r(T)}$$$RNA1{StrandType:ss}|RNA2{StrandType:as}$	61
RNA1{m(A)p.r(A)p.m(C)p.r(A)p.m(G)p.r(C)p.m(C)p.r(U)p.m(U)p.r(A)p.m(C)p.r(C)p.m(C)p.r(C)p.m(G)p.r(A)p.m(U)p.r(U)p.m(C)p.r(T)p.r(T)}|RNA2{r(G)p.m(A)p.m(A)p.r(U)p.r(C)p.r(G)p.r(G)p.r(G)p.r(G)p.r(U)p.m(A)p.m(A)p.r(G)p.r(G)p.r(C)p.r(U)p.r(G)p.r(U)p.r(U)p.r(T)p.r(T)}$$$RNA1{StrandType:ss}|RNA2{StrandType:as}$	32
RNA1{m(G)p.r(A)p.m(U)p.r(U)p.m(C)p.r(C)p.m(A)p.r(A)p.m(A)p.r(C)p.m(C)p.r(C)p.m(C)p.r(A)p.m(C)p.r(U)p.m(A)p.r(U)p.m(C)p.r(T)p.r(T)}|RNA2{r(G)p.r(A)p.r(U)p.r(A)p.r(G)p.r(U)p.r(G)p.r(G)p.r(G)p.r(G)p.r(U)p.r(U)p.r(U)p.r(G)p.r(G)p.r(A)p.r(A)p.r(U)p.r(C)p.r(T)p.r(T)}$$$RNA1{StrandType:ss}|RNA2{StrandType:as}$	54
RNA1{r(G)p.r(G)p.r(A)p.r(G)p.r(C)p.r(A)p.r(C)p.r(G)p.r(C)p.r(U)p.m(U)p.r(A)p.r(C)p.m(U)p.r(A)p.r(C)p.r(C)p.r(U)p.r(U)p.r(T)p.r(T)}|RNA2{r(A)p.r(A)p.r(G)p.r(G)p.m(U)p.r(A)p.r(G)p.m(U)p.r(A)p.r(A)p.r(G)p.r(C)p.r(G)p.r(U)p.r(G)p.r(C)p.r(U)p.r(C)p.r(C)p.r(T)p.r(T)}$$$RNA1{StrandType:ss}|RNA2{StrandType:as}$	69
RNA1{[fl2r](U)p.r(C)p.[fl2r](C)p.r(U)p.[fl2r](C)p.r(G)p.[fl2r](U)p.r(C)p.[fl2r](G)p.r(U)p.[fl2r](C)p.r(U)p.[fl2r](G)p.r(U)p.[fl2r](U)p.r(C)p.[fl2r](U)p.r(A)p.[fl2r](A)p.r(T)p.r(T)}|RNA2{r(U)p.r(U)p.r(A)p.r(G)p.r(A)p.r(A)p.[fl2r](C)p.r(A)p.r(G)p.r(A)p.[fl2r](C)p.r(G)p.r(A)p.[fl2r](C)p.r(G)p.r(A)p.r(G)p.r(G)p.r(A)p.r(T)p.r(T)}$$$RNA1{StrandType:ss}|RNA2{StrandType:as}$	49
RNA1{r(C)p.r(U)p.r(U)p.r(A)p.r(C)p.r(G)p.r(C)p.r(U)p.r(G)p.r(A)p.r(G)p.r(U)p.r(A)p.r(C)p.r(U)p.r(U)p.r(C)p.r(G)p.r(A)p.r(T)p.r(T)}|RNA2{r(U)p.r(C)p.r(G)p.r(A)p.r(A)p.[lna](G)p.r(U)p.r(A)p.r(C)p.r(U)p.r(C)p.r(A)p.r(G)p.r(C)p.r(G)p.r(U)p.r(A)p.r(A)p.r(G)p.r(T)p.r(T)}$$$RNA1{StrandType:ss}|RNA2{StrandType:as}$	82
RNA1{[una](U)p.r(G)p.r(A)p.r(A)p.r(U)p.r(C)p.r(A)p.r(G)p.r(A)p.r(A)p.r(G)p.r(A)p.r(U)p.r(G)p.r(A)p.r(A)p.r(G)p.r(U)p.r(C)p.r(A)p.r(A)}|RNA2{[una](G)p.r(A)p.r(C)p.r(U)p.r(U)p.r(C)p.r(A)p.r(U)p.r(C)p.r(U)p.r(U)p.r(C)p.r(U)p.r(G)p.r(A)p.r(U)p.r(U)p.r(C)p.r(A)p.r(A)p.r(G)}$$$RNA1{StrandType:ss}|RNA2{StrandType:as}$	0
